In patent US20230043428A1, “COMPOSITIONS AND METHODS FOR USE OF CANNABINOIDS FOR NEUROPROTECTION” (INMED PHARMACEUTICALS INC., priority 2019, published 2023):
Where “and” joins values, the source holds several entries; their conditions need not be identical. Equal values may be shown once. Entries after “also recorded” stand apart in the source; their conditions may differ.

What was measured:
[1] = tested on: rat episcleral vein laser photocoagulation model of glaucoma (RGC function); test: pattern electroretinogram (pERG) in the rat episcleral vein laser photocoagulation model of glaucoma; assay type: in vivo; details: for pERG amplitudes vs baseline (statistical significance): two-way ANOVA, Tukey
Description: The pattern electroretinogram (pERG) amplitude a parameter that measures retinal ganglion cell (RGC) activity was evaluated on the eyes of anesthetized animals. During the pERG recording, the eyes were kept moist with a drop of 2.5% GonioVisc ophthalmic lubricant solution (Hub Pharmaceuticals), which also secured electrical contact between the corneas and ERG electrodes. The ERG electrodes were thin silver/silver-chloride wire rings. One eye was recorded while another eye was mechanically occluded. The occluded eye served as a reference in the ERG recording providing minimal physiological noise, while the ground electrode was placed on the tail. Only the signals from the right eye (OD) were recorded. The pERG stimulus was generated with a gamma-linearized monitor screen yielding vertical sinusoidal pattern of 0.10 cycles per degree of visual angle at viewing distance. The mean luminance of stimulation was 45 lux and contrast between dark and white was 99%. […] Two recordings were performed for each eye. For the pERG analysis, the pERG waveforms were superimposed, checked for consistency and averaged as final pERG response. Baseline pERG responses were recorded at day 0 four days prior to the lasering, and on days 7, 14 and day 21 post-lasering. Initially pERG baseline amplitudes were recorded on the eyes of all animals at baseline. The animals were then randomized into control and treatments groups based on their pERG response.
The following treatment arms were used in the study: • Group 1: Vehicle (0.5% DMSO-PBS) (IVT, day 0, day 7 and day 15) n=11 • Group 2: CBN low dose, 5 μM in 0.05% DMSO-PBS (IVT, day 0, day 7 and day 15) n=13 • Group 3: CBN high dose 50 μM in 0.5% DMSO-PBS (IVT, day 0, day 7 and day 15) n=11 • Group 4: Brimonidine (topical, twice daily at 5 μl per eye, day −3 to day 21) n=14

[2] = tested on: differentiated 661W cells; test: MTT assay, cannabinoid cytotoxicity on differentiated 661W cells under atmospheric pressure; assay type: cell-based, mouse; details: 72 hours
Description: (§1) Cell Culture and Differentiation: The mouse 661W (RGC-5) cell line was maintained in DMEM cell culture medium supplemented with 10% FBS and 1% Antibiotic-Antimycotic penicillin/streptomycin (growth medium) at 37° C. in a humidified atmosphere of 5% CO2. To induce neuronal differentiation in 661W cells, culture media was replaced by a growth medium containing 321 nM Staurosporine (STSR), and cells were incubated for 24 hrs at 37° C. in a humidified atmosphere of 5% CO2.
(§2) Compounds and Dosing Formulations: Selected cannabinoids: CBN, CBD, CBGA, CBDA, CBND and Δ^9-THC were procured from Cayman and Toronto Research Chemicals. Ethanol was used as the solvent to prepare 1 and 10 mM stock solutions. Treatment concentrations for CBN were prepared at 0.015, 0.05, 0.15, 0.5, 1.5, 5, 10 and 15 μM. Treatment concentrations at 0.5, 1.5 and 5 μM for other cannabinoids were prepared directly in the control medium (DMEM+5% FBS+1% Antibiotic-Antimycotic) by using appropriate stock solution.
(§3) Evaluation of Cytotoxicity and Neuroprotection: Evaluation of cannabinoid cytotoxicity on differentiated 661W cells under atmospheric pressure was carried out using MTT (3-(4,5-dimethylthiazol-2-yl)-2,5-diphenyltetrazolium bromide) assay. The cells were seeded onto 96-well plates (4,000 cells/well) in DMEM complete medium and allowed to reach ˜70% confluence for 24 hrs. After 24 hours, cell culture medium was replaced by growth medium containing 321 nM Staurosporine (STSR) and incubated for 1 day to induce differentiation into a neuronal phenotype.
(§4) MTT Assay: For the MTT assay, differentiated 661W cells were treated with cannabinoids at various concentrations and processed to determine cytotoxicity. Briefly, 5 mg/mL of methylthiazolyldiphenyl-tetrazolium bromide (Sigma-Aldrich) stock solution was prepared in PBS. Following treatment of cannabinoids for 72 hours, 661W cells were incubated with 20 μL of MTT stock solution in 200 μL DMEM for 2 hours at 37° C. Following subsequent washes with PBS, 200 μL of isopropanol was added to each well, and the resulting change in color from dissolving formazan salt was immediately quantified using spectrophotometer (BMG Labtech) at a wavelength of 570 nm. The data was normalized to Vehicle Control (VC) containing 0.15% ethanol and presented as % Cell Death. The VC (%) at atmospheric pressure was considered as 0% cell death. The results are illustrated in FIG. 1.

[3] = tested on: differentiated 661W cells; test: MTT assay, differentiated 661W cells in pressurized chamber at elevated hydrostatic pressure (approximately 20 to 40 mm Hg); assay type: cell-based, mouse; details: for neuroprotection (Cell Death % vs Normal Pressure Vehicle Control): elevated hydrostatic pressure approximately 20 to 40 mm Hg, 72 hours
Description: as §1, §2, §3, §4
Except where indicated all procedures were performed as described in Example 1. Differentiated 661W cells treated with cannabinoids at the respective concentrations were placed in a pressurized chamber where an elevated hydrostatic pressure of […] was maintained for 72 hrs. At the end of incubation, 661W cells were processed for MTT assay to determine cytotoxicity. The results are illustrated in FIGS. 2-5.

[4] = tested on: differentiated 661W cells; test: MTT assay, CBNA on differentiated 661W cells at elevated hydrostatic pressure (~10-25 mmHg); assay type: cell-based, mouse; details: elevated hydrostatic pressure approximately 10 to 25 mmHg; 0.015 to 15 μM; 72 hours
Description: as §4
In a separate study cannabinol-derivative CBNA at 0.015, 0.05, 0.15, 0.5, 1.5, 5, 10, and 15 μM concentrations was placed on differentiated 661W cells in a pressurized chamber where an elevated hydrostatic pressure of ˜10-25 mmHg was maintained for 72 hrs. At the end of incubation, 661W cells were processed for MTT assay to determine cytotoxicity. The results are illustrated in FIG. 6.

[5] = Brimonidine topical, twice daily at 5 μl per eye
[6] = Brimonidine topical, twice daily
[7] = CBN high dose, 50 μM, IVT day 0, 7 and 15
[8] = CBN low dose, 5 μM, IVT day 0, 7 and 15

Brc1c(NC2=NCCN2)ccc2nccnc12 [Alphagan, Brimonidine]
pERG amplitudes vs baseline (statistical significance) ([1]; Brimonidine (ALPHAGAN) topical twice daily, follow-up days 14 and 21): did not differ significantly from the baseline | pERG amplitude (mean ± SEM), BASELINE ([1]; Brimonidine topical, twice daily at 5 μl per eye, day −3 to day 21, baseline): 3.6 ± 0.4 μV | pERG amplitude (mean ± SEM), DAY 7 [1, 5]: 3.9 ± 0.6 μV | pERG amplitude (mean ± SEM), DAY 14 [1, 5]: 2.8 ± 0.4 μV | pERG amplitude (mean ± SEM), DAY 21 [1, 5]: 2.4 ± 0.3 μV | pERG amplitude reduction compared to baseline value, Day 7 [1, 6]: 9.6% | pERG amplitude reduction compared to baseline value, Day 14 [1, 6]: −22.8% | pERG amplitude reduction compared to baseline value, Day 21 [1, 6]: −31.6%

CCCCCc1cc(O)c2c(c1)OC(C)(CCC=C(C)C)C=C2 (stereo not drawn) [CBC, cannabichromene]
toxicity when in contact with neurons ([2]; concentration of about 1.5 μM): high toxicity | toxicity when in contact with neurons ([2]; concentration of about 5 μM): high toxicity

C=C(C)[C@@H]1CCC(C)=C[C@H]1c1c(O)cc(CCCCC)c(C(=O)O)c1O [CBDA, cannabidiolic acid]
neuroprotection (Cell Death % vs Normal Pressure Vehicle Control) ([3]; 0.5 μM, 1.5 μM and 5 μM): absence of significant neuroprotection | toxicity when in contact with neurons ([2]; concentration of about 5 μM): high toxicity

C=C(C)[C@@H]1CCC(C)=C[C@H]1c1c(O)cc(CCCCC)cc1O [CBD]
neuroprotection (Cell Death % vs Normal Pressure Vehicle Control) ([3]; 0.5 μM, 1.5 μM and 5 μM): absence of significant neuroprotection | toxicity when in contact with neurons ([2]; concentration of about 0.5 μM): high toxicity | toxicity when in contact with neurons ([2]; concentration of about 1.5 μM): high toxicity | toxicity when in contact with neurons ([2]; concentration of about 5 μM): high toxicity

CCCCCc1cc(O)c(C/C=C(\C)CCC=C(C)C)c(O)c1 [CBG, cannabigerol]
toxicity when in contact with neurons ([2]; concentration of about 0.5 μM): high toxicity | toxicity when in contact with neurons ([2]; concentration of about 1.5 μM): high toxicity | toxicity when in contact with neurons ([2]; concentration of about 5 μM): high toxicity

CCCCCc1cc(O)c(C/C=C(\C)CCC=C(C)C)c(O)c1C(=O)O [CBGA]
neuroprotection (Cell Death % vs Normal Pressure Vehicle Control) ([3]; 0.5 μM, 1.5 μM and 5 μM): absence of significant neuroprotection | toxicity when in contact with neurons ([2]; concentration of about 0.5 μM): high toxicity | toxicity when in contact with neurons ([2]; concentration of about 1.5 μM): high toxicity | toxicity when in contact with neurons ([2]; concentration of about 5 μM): high toxicity

CCCCCc1cc(O)c2c(c1)OC(C)(C)c1ccc(C)cc1-2 [CBN, 6,6,9-trimethyl-3-pentylbenzo[c]chromen-1-ol]
pERG amplitudes vs baseline (statistical significance) ([1]; CBN high dose, 50 μM IVT, days 14 and 21): statistically significant difference in disease induction; also recorded: Statistically significant impairment of RGC function | pERG amplitude (mean ± SEM), BASELINE ([1]; CBN high dose, 50 μM, IVT day 0, 7 and 15, baseline (before lasering)): 3.83 μV and 3.8 ± 0.4 μV | pERG amplitude (mean ± SEM), DAY 7 [1, 7]: 3.6 ± 0.6 μV | pERG amplitude (mean ± SEM), DAY 14 [1, 7]: 1.87 μV and 1.9 ± 0.3 μV | pERG amplitude (mean ± SEM), DAY 21 [1, 7]: 2.19 μV and 2.2 ± 0.4 μV | pERG amplitude reduction compared to baseline value, Day 7 ([1]; CBN high dose, 50 μM, IVT): −6.4% | pERG amplitude reduction compared to baseline value, Day 14 ([1]; CBN high dose, 50 μM, IVT, **p<0.01 vs baseline): −51.2** % | pERG amplitude reduction compared to baseline value, Day 21 ([1]; CBN high dose, 50 μM, IVT, *p<0.05 vs baseline): −42.9* % | neuroprotective effect on RGCs ([1]; CBN low dose of 5 μM final concentration inside the eye): confers neuroprotective effect on RGCs similar to ALPHAGAN | pERG amplitudes vs baseline (statistical significance) ([1]; CBN low dose, 5 μM final concentration inside the eye, follow-up days 14 and 21): did not differ significantly from the baseline | pERG amplitude (mean ± SEM), BASELINE ([1]; CBN low dose, 5 μM, IVT day 0, 7 and 15, baseline (before lasering)): 3.3 ± 0.3 μV | pERG amplitude (mean ± SEM), DAY 7 [1, 8]: 3.2 ± 0.5 μV | pERG amplitude (mean ± SEM), DAY 14 [1, 8]: 2.3 ± 0.2 μV | pERG amplitude (mean ± SEM), DAY 21 [1, 8]: 2.2 ± 0.3 μV | pERG amplitude reduction compared to baseline value, Day 7 ([1]; CBN low dose, 5 μM, IVT): −3.7% | pERG amplitude reduction compared to baseline value, Day 14 ([1]; CBN low dose, 5 μM, IVT): −31.2% | pERG amplitude reduction compared to baseline value, Day 21 ([1]; CBN low dose, 5 μM, IVT): −31.6% | neuroprotection (Cell Death % vs Normal Pressure Vehicle Control) ([3]; CBN 0.015 to 15 μM, One-Way ANOVA vs VC): statistically significant neuroprotection; also recorded: significant neuroprotective effect | neuroprotective effect compared with CBD and Δ^9-THC ([3]; elevated pressure conditions in the pressurized chamber, same conditions): surprisingly superior

CCCCCc1cc2c(c(O)c1C(=O)O)-c1cc(C)ccc1C(C)(C)O2 [CBNA, cannabinolic acid]
neuroprotection (Cell Death % vs Vehicle Control) [4]: statistically significant neuroprotection

C=C(C)c1ccc(C)cc1-c1c(O)cc(CCCCC)cc1O [CBND]
neuroprotection (Cell Death % vs Normal Pressure Vehicle Control) ([3]; 0.5 μM, 1.5 μM and 5 μM): absence of significant neuroprotection | toxicity when in contact with neurons ([2]; concentration of about 1.5 μM): high toxicity | toxicity when in contact with neurons ([2]; concentration of about 5 μM): high toxicity

CCCCCc1cc(O)c2c(c1)OC(C)(C)[C@@H]1CCC(C)=C[C@@H]21 [Δ^9-THC, Δ^9-tetrahydrocannabinol]
neuroprotection (Cell Death % vs Normal Pressure Vehicle Control) ([3]; 0.5 μM, 1.5 μM and 5 μM): absence of significant neuroprotection | toxicity when in contact with neurons ([2]; concentration of about 5 μM): high toxicity
